# Reference: PubChem BioAssay AID1996
# Settings: buffer; pH 7.4; 200.0 µM
row,Structure (SMILES),solubility kinetic [µg/mL]
1,COc1cc(C2C(C#N)=C(N)OC3=C2C(=O)CC(C)(C)C3)cc2c1OCO2 (centres undefined),21.6
2,O=C(c1ccc(Cl)cc1)N1CCOc2ccccc21,40.3
3,O=S(=O)(NC1CCSc2ccccc21)c1ccccc1 (centres undefined),15.6
4,COc1ccc(C(C)=O)cc1CSc1nnc(-c2ccncc2)n1C,> 53.2
5,O=C1COc2ccc(C(=O)COC(=O)c3ccc(F)cc3Cl)cc2N1,5.3
6,O=c1sc2ccccc2c(N2CCCCC2)c1[N+](=O)[O-],20.4
7,COc1ccc(C=O)cc1CN1C(=O)c2ccccc2C1=O,36.8
8,O=C(Nc1c(S(=O)(=O)c2ccccc2)csc1Br)c1ccccc1Cl,42.9
9,O=[N+]([O-])c1ccc(Nc2ccccc2)c2nonc12,> 38.4
10,O=C(N/N=C/c1cccc2ccccc12)c1cccnc1,> 41.3
11,Cc1ccc(N=C(NO)c2cnccc2C(F)(F)F)c(C)c1,> 46.4
12,O=C(Nc1ccc(F)c(Cl)c1)c1ccc2c(c1)OCO2,< 0.6
13,Cn1c(=O)n(C)c2cc3[nH]cnc3cc21,> 30.3
14,N#Cc1c(-c2ccc(Cl)cc2)cc(-c2cccs2)nc1SCC(=O)O,13.2
15,CCOc1ccc2nc(SCC(=O)Nc3cc(C)on3)c(C)cc2c1,< 0.3
16,O=c1oc2ccccc2nc1/C=C(\O)c1ccc(Br)cc1,19

row,Structure (SMILES),solubility kinetic [µg/mL]
1,COC(=O)c1ccc(Cn2cc(/C=C\[N+](=O)[O-])c3ccccc32)o1,1.6
2,O=C(NCc1ccccc1)c1csc(-c2cccnc2)n1,> 44.3
3,c1ccc(-n2cnc3ccccc32)cc1,24.6
4,O=c1[nH]c(/C=C/c2cccc([N+](=O)[O-])c2)c([N+](=O)[O-])c(=O)[nH]1,34.8
5,Cc1ccc(-c2nc(=S)c3c(n2Cc2cccnc2)CC(C)(C)OC3)cc1,> 56.6
6,Cc1cc(C)nc(SCC(N)=O)n1,28.5
7,Cn1c(=O)n(C)c2cc(S(=O)(=O)Nc3ccccc3C(=O)O)ccc21,> 54.2
8,Nc1ncc(S(=O)(=O)c2ccc(Cl)cc2)c(N)n1,31.4
9,COc1ccc(-c2nc3ccccc3c(=O)n2CCc2ccc(O)cc2)cc1,12.4
10,O=C(Nc1ccccc1N1CCCCC1)c1ccc(Cl)cc1,1.5
11,CCCCn1c(CCCNC(=O)c2ccco2)nc2ccccc21,> 48.8
12,Cc1cc(N2C(=O)C(O)=C(C(=O)c3cccs3)C2c2ccc(F)cc2)no1 (centres undefined),> 57.7
13,Cc1ccc(C)c(C(=O)CSc2nc(N)cc(=O)[nH]2)c1,19.2
14,Cc1cc(C)cc(N2CCCn3c2nc2c3c(=O)[nH]c(=O)n2C)c1,3.3
15,Cc1ccc(C(=O)NCc2ccc3c(c2)OCO3)cc1,34.8

# More lines, now with the values ahead:
row,solubility kinetic [µg/mL],Structure (SMILES)
1,> 36.2,CC(=O)c1cccc(NC(=O)c2cnccn2)c1
2,23,CCc1ccc(NC(=O)Cn2cnc([N+](=O)[O-])c2)cc1
3,> 53.9,CCOc1ncccc1C(=O)N(CC)CC(=O)NCc1ccc(F)cc1
4,10.1,O=C(COC(=O)c1ccc(OC(F)(F)F)cc1)Nc1ncccn1
5,> 43.7,COc1cccc(CC(=O)OCC(=O)NC2CCCC2)c1
6,24.5,CCOc1cc(/C=C\[N+](=O)[O-])ccc1OCC(=O)N1CCOCC1
7,> 44.2,CC(OC(=O)c1ccco1)C(=O)Nc1ccc(Cl)cn1 (centres undefined)
8,> 37.1,O=C1CCC(C(=O)OCC(=O)c2ccccc2)N1 (centres undefined)
9,> 42.9,O=C(COC(=O)c1c[nH]c2ccccc12)NC1CCCC1
10,1.9,CC(C)(C)OC(=O)N1CCN(c2ccc([N+](=O)[O-])cc2)CC1
11,37.6,CC(C)C(=O)OCC(=O)NCc1ccccc1Cl
12,29.4,CCc1ccc(N2C(=O)C3CCCN3C2=S)cc1 (centres undefined)
13,> 49.4,CC(C)c1ccc(NC(=O)CN2C(=O)NC3(CCCC3)C2=O)cc1
14,5,COC(=O)c1c(C)oc(C)c1S(=O)(=O)NCc1ccc(Cl)cc1
15,> 53.7,CCOP(=O)(OCC)/C(=N/OC(=O)c1ccc(OC)cc1)C(N)=O
16,40.7,CS(=O)(=O)N(CC(=O)N1CCOCC1)c1cccc(F)c1
17,> 38.6,O=C(Cc1ccc([N+](=O)[O-])cc1)Nc1cccnc1
18,40.7,O=C(NC1CCN(Cc2ccc(F)cc2)CC1)c1ccccc1
19,> 36.9,COCCNC(=O)/C(C#N)=C/c1ccc(O)cc1
20,> 47.5,CS(=O)(=O)N1CCCC(C(=O)Nc2ccccc2Cl)C1 (centres undefined)
21,0.9,COc1ccc(Cl)cc1NC(=O)C1CC(c2ccccc2O)=NO1 (centres undefined)
22,4.2,Cc1csc2nc(O)c(C(=O)NCCCc3ccccc3)c(=O)n12
23,1.7,COC(=O)c1c(C)[nH]c(C(=O)/C=C/c2ccc(C)cc2)c1C
24,1.5,COc1ccc(N2C(=O)c3ccccc3S2(=O)=O)cc1
25,> 57.8,CC(NC(=O)COc1ccccc1)C(=O)N1CCN(c2ccc(F)cc2)CC1 (centres undefined)
26,32.8,O=C(CCSCc1ccccc1F)NCc1ccc(F)cc1
27,> 48.8,CC(C)Oc1cccc(C(=O)C2CCCN(S(C)(=O)=O)C2)c1 (centres undefined)
28,> 46.6,Cn1c(=O)oc2cc(S(=O)(=O)NC3CCCCC3)ccc21
